In patent US10030016B2 (Sunesis Pharmaceuticals, Inc., priority 2009, dated 2018):
Where two headings read alike, the source gives them in different places.

Columns and labels:
PDK1 = PDK1 (Homo sapiens (Human), UniProt O15530); experiment: PDK1 kinase assay (coupled PDK1/AKT/FAM-crosstide assay, IMAP fluorescence polarization); assay type: biochemical; settings: inhibition of phospo-PDK1 in vitro
Summary of the method: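 Inhibition is derived by 4-parameter fitting of ΔmP from an IMAP fluorescence polarization read of FAM-crosstide (100 nM) phosphorylation. The cascade ran 30 min at 25 °C with 40 μM ATP, using insect-cell GST-PDK1 51-359 (0.75 nM) driving 10 nM unphosphorylated AKT2 140-467-PIFtide fusion.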

[1] = system: phospho-akt (Thr308) in PC-3 cells; experiment: Inhibition of phospho-akt (Thr308) in PC-3 cells, MSD phospho-akt 308 ELISA kit; assay type: cell-based; settings: Homo sapiens, inhibition of P308 Akt in PC-3 cells, 2 hours, no serum, MSD, read-out: EC50
Summary of the method: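 Phospho-Akt (Thr308) levels were measured by MSD ELISA after PC-3 cells received compound for 2 hours in serum-free medium. Controls: DMSO (high), 5 μM wortmannin (low).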

Sequence of PDK1 (O15530 51-359): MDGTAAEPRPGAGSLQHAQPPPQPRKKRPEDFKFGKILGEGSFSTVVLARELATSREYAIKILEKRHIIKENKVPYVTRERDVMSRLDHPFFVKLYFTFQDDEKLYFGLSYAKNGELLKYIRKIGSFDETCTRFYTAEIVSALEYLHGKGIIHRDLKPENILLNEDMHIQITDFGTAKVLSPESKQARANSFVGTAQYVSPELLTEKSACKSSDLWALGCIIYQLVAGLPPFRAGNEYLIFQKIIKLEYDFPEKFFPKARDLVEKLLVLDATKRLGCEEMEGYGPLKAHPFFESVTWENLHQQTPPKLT

**Q.** For `O=C(NCc1ccc(F)c(F)c1)c1cccnc1NCc1cccc(-c2c[nH]c3ncncc23)c1` [Example 6.2, 2-(3-(7H-pyrrolo[2,3-d]pyrimidin-5-yl)benzylamino)-N-(3,4-difluorobenzyl)nicotinamide], which IC50 (PDK1) is on record?
**A.** < 0.1 µM

**Q.** What about the EC50 [1] of the same compound?
**A.** 1 to 10 µM

**Q.** `O=C(NCc1ccc(F)c(F)c1)c1cccnc1NCc1cccc(-c2ccc3ncnc(NC4CC4)c3c2)c1` [Example 6.3, 2-(3-(4-(cyclopropylamino)quinazolin-6-yl)benzylamino)-N-(3,4-difluorobenzyl)-nicotinamide] was tested. Which IC50 (PDK1) did it give?
**A.** < 0.1 µM

**Q.** And the EC50 [1]?
**A.** > 10 µM

**Q.** Which results are given for `O=C(NCc1ccc(F)c(F)c1)c1cccnc1NCc1ccccc1-c1c[nH]c2ncccc12` [Example 6.4, N-(3,4-difluorobenzyl)-2-{[2-(1H-pyrrolo[2,3-b]pyridin-3-yl)benzyl]amino}-pyridine-3-carboxamide]?
**A.** IC50 (PDK1): > 5 µM; EC50 [1]: > 10 µM

**Q.** Which results are given for `C[C@H](NC(=O)c1cc(F)cnc1NCc1ccc(-c2ccc3ncnc(N)c3c2)s1)c1ccc(F)cc1` [Example 7.3.2, (S)-2-(((5-(4-aminoquinazolin-6-yl)thiophen-2-yl)methyl)amino)-5-fluoro-N-(1-(4-fluorophenyl)ethyl) nicotinamide]?
**A.** IC50 (PDK1): < 0.1 µM; EC50 [1]: < 1 µM

**Q.** Which results are given for `C[C@@H](c1ccc(F)c(F)c1)n1cnc2ccnc(NCc3ccc(-c4ccc5ncnc(N)c5c4)s3)c2c1=O` [Example 7.10, 5-({[5-(4-aminoquinazolin-6-yl)thiophen-2-yl]methyl}amino)-3-[(1S)-1-(3,4-difluorophenyl)ethyl] pyrido[4,3-d]pyrimidin-4(3H)-one]?
**A.** IC50 (PDK1): < 0.1 µM; EC50 [1]: < 1 µM

**Q.** How did the IC50 (PDK1) turn out when `C[C@@H](c1ccc(F)c(F)c1)n1cnc2ccnc(NCc3ccc(-c4cc5c(N)ncnc5cn4)s3)c2c1=O` [Example 7.11, 5-({[5-(4-aminopyrido [3,4-d]pyrimidin-6-yl)thiophen-2-yl]methyl}amino)-3-[(1S)-1-(3,4-difluorophenyl)ethyl] pyrido[4,3-d]pyrimidin-4(3H)-one] was run?
**A.** 0.1 to 1 µM

**Q.** And the EC50 ([1]; PC-3, 2 h)?
**A.** < 1 µM

**Q.** What does the source list for `C[C@@H](c1ccc(F)cc1)n1cnc2ccnc(NCc3ccc(-c4cc5c(N)ncnc5cn4)s3)c2c1=O` [Example 7.12, 5-({[5-(4-aminopyrido [3,4-d]pyrimidin-6-yl)thiophen-2-yl]methyl}amino)-3-[(1S)-1-(4-fluorophenyl)ethyl] pyrido[4,3-d]pyrimidin-4(3H)-one]?
**A.** IC50 (PDK1): > 5 µM; EC50 [1]: > 10 µM

**Q.** Which results are given for `C[C@H](NC(=O)c1cc(F)cnc1NCc1ccc(-c2ccc3ncnc(N)c3c2)s1)c1ccc(F)c(F)c1` [Example 7.13, 2-({[5-(4-aminoquinazolin-6-yl)thiophen-2-yl]methyl}amino)-N-[(1S)-1-(3,4-difluorophenyl)ethyl]-5-fluoropyridine-3-carboxamide]?
**A.** IC50 (PDK1): 0.1 to 1 µM; EC50 [1]: < 1 µM

**Q.** Which IC50 (PDK1) does the source give for `C[C@H](NC(=O)c1cc(F)cnc1NCc1ccc(-c2cc3c(N)ncnc3cn2)s1)c1ccc(F)c(F)c1` [Example 7.15, 2-({[5-(4-aminopyrido[3,4-d]pyrimidin-6-yl)thiophen-2-yl]methyl}amino)-N-[(1S)-1-(3,4-difluorophenyl)ethyl]-5-fluoropyridine-3-carboxamide] here?
**A.** 0.1 to 1 µM

**Q.** What about the EC50 [1] of the same compound?
**A.** 1 to 10 µM

**Q.** For `C[C@H](NC(=O)c1cccnc1NCc1ccc(-c2cc3c(N)ncnc3cn2)s1)c1ccc(F)c(F)c1` [Example 7.16, 2-({[5-(4-aminopyrido[3,4-d]pyrimidin-6-yl)thiophen-2-yl]methyl}amino)-N-[(1S)-1-(3,4-difluorophenyl)ethyl] pyridine-3-carboxamide], which IC50 (PDK1) is on record?
**A.** 0.1 to 1 µM

**Q.** And the EC50 [1]?
**A.** 1 to 10 µM

**Q.** `C[C@H](NC(=O)c1cc(I)cnc1NCc1ccc(-c2ccc3ncnc(N)c3c2)s1)c1ccc(F)cc1` [Example 7.21.2, 2-({[5-(4-aminoquinazolin-6-yl)thiophen-2-yl]methyl}amino)-N-[(1S)-1-(4-fluorophenyl)ethyl]-5-iodopyridine-3-carboxamide] was tested. Which IC50 (PDK1) did it give?
**A.** 0.1 to 1 µM

**Q.** What about the EC50 [1] of the same compound?
**A.** < 1 µM

**Q.** For `C[C@H](NC(=O)c1cc(S(C)(=O)=O)cnc1NCc1ccc(-c2ccc3ncnc(N)c3c2)s1)c1ccc(F)cc1` [Example 7.22.2, 2-({[5-(4-aminoquinazolin-6-yl)thiophen-2-yl]methyl}amino)-N-[(1S)-1-(4-fluorophenyl)ethyl]-5-(methylsulfonyl)pyridine-3-carboxamide], which IC50 (PDK1) is on record?
**A.** 0.1 to 1 µM

**Q.** And the EC50 [1]?
**A.** < 1 µM

**Q.** Which IC50 (PDK1) does the source give for `CCOC(=O)c1cnc(NCc2ccc(-c3ccc4ncnc(N)c4c3)s2)c(C(=O)NCc2ccc(F)c(F)c2)c1` [Example 7.23.2, Ethyl 6-({[5-(4-aminoquinazolin-6-yl)thiophen-2-yl]methyl}amino)-5-[(3,4-difluorobenzyl)carbamoyl]pyridine-3-carboxylate] here?
**A.** 0.1 to 1 µM

**Q.** And the EC50 [1]?
**A.** < 1 µM

**Q.** How did the IC50 (PDK1) turn out when `CN(C)CCNC(=O)c1cnc(NCc2ccc(-c3ccc4ncnc(N)c4c3)s2)c(C(=O)NCc2ccc(F)c(F)c2)c1` [Example 7.24.2, 2-({[5-(4-aminoquinazolin-6-yl)thiophen-2-yl]methyl}amino)-N^3-(3,4-difluorobenzyl)-N^5-[2-(dimethylamino)ethyl] pyridine-3,5-dicarboxamide] was run?
**A.** 0.1 to 1 µM

**Q.** What about the EC50 ([1]; PC-3, 2 h) of the same compound?
**A.** 1 to 10 µM

**Q.** For `CNC(=O)c1cnc(NCc2ccc(-c3ccc4ncnc(N)c4c3)s2)c(C(=O)NCc2ccc(F)c(F)c2)c1` [Example 7.24.3, 2-({[5-(4-aminoquinazolin-6-yl)thiophen-2-yl]methyl}amino)-N^3-(3,4-difluorobenzyl)-N^5-methylpyridine-3,5-dicarboxamide], which IC50 (PDK1) is on record?
**A.** < 0.1 µM

**Q.** What about the EC50 [1] of the same compound?
**A.** < 1 µM

**Q.** How did the IC50 (PDK1) turn out when `CN(C)C(=O)c1cnc(NCc2ccc(-c3ccc4ncnc(N)c4c3)s2)c(C(=O)NCc2ccc(F)c(F)c2)c1` [Example 7.24.4, 2-({[5-(4-aminoquinazolin-6-yl)thiophen-2-yl]methyl}amino)-N^3-(3,4-difluorobenzyl)-N^5,N^5-dimethylpyridine-3,5-dicarboxamide] was run?
**A.** < 0.1 µM

**Q.** What about the EC50 [1] of the same compound?
**A.** < 1 µM

**Q.** Which IC50 (PDK1) does the source give for `CN(C)CCCNC(=O)c1cnc(NCc2ccc(-c3ccc4ncnc(N)c4c3)s2)c(C(=O)NCc2ccc(F)c(F)c2)c1` [Example 7.24.5, 2-({[5-(4-aminoquinazolin-6-yl)thiophen-2-yl]methyl}amino)-N^3-(3,4-difluorobenzyl)-N^5-[3-(dimethylamino)propyl] pyridine-3,5-dicarboxamide] here?
**A.** 0.1 to 1 µM

**Q.** What about the EC50 [1] of the same compound?
**A.** > 10 µM

**Q.** What does the source list for `Nc1ncnc2ccc(-c3ccc(CNc4ncc(C(=O)N5CCOCC5)cc4C(=O)NCc4ccc(F)c(F)c4)s3)cc12` [Example 7.24.6, 2-({[5-(4-aminoquinazolin-6-yl)thiophen-2-yl]methyl}amino)-N^3-(3,4-difluorobenzyl)-5-(morpholin-4-ylcarbonyl)pyridine-3-carboxamide]?
**A.** IC50 (PDK1): < 0.1 µM; EC50 [1]: 1 to 10 µM

**Q.** For `COc1cnc(NCc2ccc(-c3ccc4ncnc(N)c4c3)s2)c(C(=O)NCc2ccc(F)c(F)c2)c1` [Example 8.1.2, 2-({[5-(4-aminoquinazolin-6-yl)thiophen-2-yl]methyl}amino)-N-(3,4-difluorobenzyl)-5-methoxypyridine-3-carboxamide], which IC50 (PDK1) is on record?
**A.** < 0.1 µM

**Q.** And the EC50 [1]?
**A.** < 1 µM

**Q.** How did the IC50 (PDK1) turn out when `CCOc1cnc(NCc2ccc(-c3ccc4ncnc(N)c4c3)s2)c(C(=O)NCc2ccc(F)c(F)c2)c1` [Example 8.1.3, 2-({[5-(4-aminoquinazolin-6-yl)thiophen-2-yl]methyl}amino)-N-(3,4-difluorobenzyl)-5-ethoxypyridine-3-carboxamide] was run?
**A.** > 5 µM

**Q.** And the EC50 [1]?
**A.** > 10 µM
